Tests used:
BJeLR = test: Modulatory profiling: Alamar Blue viability, lethal compound cotreated with death modulator (EC50, AUC); assay type: cell-based, human; parameters: AUC, modulator BJ.Gd3+ / AUC, modulator BJ.LNAME / AUC, modulator BJ.Lmin / AUC, modulator BJ.3MA / AUC, modulator BJ.ALLN / AUC, modulator BJ.Boc D / AUC, modulator BJ.CHX / AUC, modulator BJ.Co2+ / AUC, modulator BJ.Nec-1 / AUC, modulator BJ.Pepstatin / AUC, modulator BJ.TLCK / AUC, modulator BJ.atoc / AUC, modulator BJ.trolox / AUC, modulator BJ.zVAD: unit not given beside the values; settings: for AUC, modulator BJ.3MA / AUC, modulator BJ.ALLN / AUC, modulator BJ.Boc D / AUC, modulator BJ.CHX / AUC, modulator BJ.Co2+ / AUC, modulator BJ.DPQ / AUC, modulator BJ.Gd3+ / AUC, modulator BJ.LNAME / AUC, modulator BJ.Lmin/NAD+ / AUC, modulator BJ.Lmin / AUC, modulator BJ.NAD+ / AUC, modulator BJ.NMMA / AUC, modulator BJ.Nec-1 / AUC, modulator BJ.Pepstatin / AUC, modulator BJ.TLCK: BJeLR cells, modulatory profile value (AUC); for AUC, modulator BJ.3MA: lethal compound cotreated with modulator 3MA; for AUC, modulator BJ.ALLN: lethal compound cotreated with modulator ALLN; for AUC, modulator BJ.Boc D: lethal compound cotreated with modulator Boc D; for AUC, modulator BJ.CHX: lethal compound cotreated with modulator CHX; for AUC, modulator BJ.Co2+: lethal compound cotreated with modulator Co2+; for AUC, modulator BJ.DPQ: lethal compound cotreated with modulator DPQ; for AUC, modulator BJ.Gd3+: lethal compound cotreated with modulator Gd3+; for AUC, modulator BJ.LNAME: lethal compound cotreated with modulator LNAME; for AUC, modulator BJ.Lmin/NAD+: lethal compound cotreated with modulator Lmin/NAD+; for AUC, modulator BJ.Lmin: lethal compound cotreated with modulator Lmin; for AUC, modulator BJ.NAD+: lethal compound cotreated with modulator NAD+; for AUC, modulator BJ.NMMA: lethal compound cotreated with modulator NMMA; for AUC, modulator BJ.Nec-1: lethal compound cotreated with modulator Nec-1; for AUC, modulator BJ.Pepstatin: lethal compound cotreated with modulator Pepstatin; for AUC, modulator BJ.TLCK: lethal compound cotreated with modulator TLCK; for EC50: Homo sapiens, BJeLR, 48 h
HT-1080 = test: as above; assay type: cell-based; parameters: AUC, modulator HT.3MA / AUC, modulator HT.ALLN / AUC HT.ATA / AUC HT.ActD / AUC HT.BHA / AUC HT.BHT / AUC HT.BocD / AUC HT.CHX / AUC HT.Co2+ / AUC HT.DPQ / AUC HT.EGTA / AUC HT.Lmim / AUC HT.NAD+ / AUC HT.Nec-1 / AUC HT.SP600125 / AUC HT.TLCK / AUC HT.U0126: unit not given beside the values; settings: for AUC HT.ATA: HT-1080, modulator ATA; for AUC HT.ActD: HT-1080, modulator ActD; for AUC HT.BHA: HT-1080, modulator BHA; for AUC HT.BHT: HT-1080, modulator BHT; for AUC HT.BocD: HT-1080, modulator BocD; for AUC HT.CHX: HT-1080, modulator CHX; for AUC HT.Co2+: HT-1080, modulator Co2+; for AUC HT.CspA: HT-1080, modulator CspA; for AUC HT.DPQ: HT-1080, modulator DPQ; for AUC HT.EGTA: HT-1080, modulator EGTA; for AUC HT.Gd3+: HT-1080, modulator Gd3+; for AUC HT.LNAME: HT-1080, modulator LNAME; for AUC HT.Lmim: HT-1080, modulator Lmim; for AUC HT.NAD+: HT-1080, modulator NAD+; for AUC HT.NMMA: HT-1080, modulator NMMA; for HT.atoc (AUC) / HT.bCarotene (AUC) / HT.deferox (AUC) / HT.digoxin (AUC) / HT.trolox (AUC) / HT.zVAD (AUC) / EC50: HT-1080; for HT.atoc (AUC): modulator atoc; for HT.bCarotene (AUC): modulator bCarotene; for HT.deferox (AUC): modulator deferox; for HT.digoxin (AUC): modulator digoxin; for HT.trolox (AUC): modulator trolox; for HT.zVAD (AUC): modulator zVAD; for EC50: Homo sapiens, HT-1080, 48 h, 48 h
[1] = Cobalt (II) binding assay in vitro (absorbance spectrum); settings: absorbance 300-700 nm
Method: For each cluster I compound (CIL13, −52, and −64), prepared two-fold dilution series with DMSO. We added 30 μL per well of either water or 10 μM cobalt (II) chloride solution to each well of a 384-well plate. Dilution series of each compound in DMSO were added by 10 μL per well. After solutions had been mixed by shaking of the plate using a Victor 3 plate reader (PerkinElmer), absorbance was scanned between 300 and 700 nm for each compound. Finally the following Absorbance value for each compound was plotted (see FIG. 9B):
[formula] where Abs is the absorbance at each wavelength. Search of Commercially Available Structural Analogs of CIL41/70.

HT-1080 or BJeLR cells = test: Analysis of ROS generation (H2-DCFDA flow cytometry); assay type: cell-based
Method: Grew 200,000 HT-1080 or BJeLR cells in six-well plates at 37° C. for 16 h. Cells were treated with test compounds, trypsinized, pelleted, and washed once with PBS. For lipophilic or aqueous ROS detection, cells were re-suspended in Hanks' Balanced Salt Solution (HBSS; Life Technologies) containing test compounds as well as C11-BODIPY(581/591) (2 μM) or H2-DCFDA (25 μM), respectively (Life Technologies), and incubated for 10 min at 37° C. Cells were then pelleted, re-suspended in 500 μL HBSS, strained through a 40-μm cell strainer (BD Falcon), and analyzed using a BD Accuri C6 flow cytometer (BD Biosciences). Both dyes were measured in the FL1 channel. Experiments were done in biological triplicates.

[2] = system: BJeLR, DRD, BJeHLT, and BJeH; test: Viability of four engineered BJ cell lines (HRAS G12V selectivity); assay type: cell-based, human; settings: 48 h
HT-1080 cells = test: Cell viability assay (Alamar Blue), lethal compounds with or without modulators; assay type: cell-based; settings: HT-1080 cells; cotreatment
Method: 1,000 cells per 36 μl were seeded in each well in 384-well plates. Lethal compounds were dissolved, and a twofold, 12-point dilution series was prepared in DMSO. Compound solutions were further diluted with media at 1:25, and 4 μl per well of the diluted solutions was added to cell cultures immediately after cells were seeded. […] When other cell-death-modulating compounds (100 nM sodium selenite, 1 μM cerivastatin, 100 μg/mL mevalonic acid) were used in cotreatments, they were supplemented to cell culture for 24 h before lethal compounds were added to cell culture, after which cells were further incubated for 24 h at 37° C. under 5% CO2. On the day of the viability measurement, we added 10 μl per well of 50% Alamar Blue diluted in media (Life Technologies) and further incubated the cells at 37° C. for 6 h. Fluorescence intensity (excitation/emission: 530/590) was measured with a Victor 3 plate reader (PerkinElmer), and the normalized viability was calculated as VL=(IL−I0)/(IV−I0), where VL, I0, IV, and IL are the normalized viability and the raw fluorescence intensities from the wells containing media, cells treated with a vehicle (negative control), and cells with the lethal compound (L), respectively. When the effect of a chemical modulator (M) on L was calculated, we instead used the equation VL|M=(IM,L−I0)/(IM,V−I0), where VL|M, IM,L and IM,V are the normalized viability, and fluorescence intensity from cells treated with […], respectively. The viability was typically measured in biological triplicate unless otherwise specified. A representative dose-response curve, the mean and standard error of normalized viability from one replicate were plotted. […]

[3] = cotreated with antioxidant Trolox
[4] = cotreated with iron-chelator Lmim

Compound: C/C(=N\Nc1ncc(Cl)cc1Cl)c1ccccn1 [CIL64]
- AUC, modulator BJ.3MA (BJeLR): 0.02465
- AUC, modulator BJ.ALLN (BJeLR): 0.0142
- AUC, modulator BJ.Boc D (BJeLR): 0.01108
- AUC, modulator BJ.CHX (BJeLR): 0.04712
- AUC, modulator BJ.Co2+ (BJeLR): 0.9402
- AUC, modulator BJ.DPQ (BJeLR): 0.009397
- AUC, modulator BJ.Gd3+ (BJeLR): 0.02721
- AUC, modulator BJ.LNAME (BJeLR): 0.03249
- AUC, modulator BJ.Lmin/NAD+ (BJeLR): 0.0757
- AUC, modulator BJ.Lmin (BJeLR): 0.02777
- AUC, modulator BJ.NAD+ (BJeLR): 0.1422
- AUC, modulator BJ.NMMA (BJeLR): 0.001966
- AUC, modulator BJ.Nec-1 (BJeLR): 0.05533
- AUC, modulator BJ.Pepstatin (BJeLR): 0.04262
- AUC, modulator BJ.TLCK (BJeLR): 0.06508
- AUC HT.ATA (HT-1080): 0.1979
- AUC HT.ActD (HT-1080): 0.04802
- AUC HT.BHA (HT-1080): −0.1469
- AUC HT.BHT (HT-1080): −0.3128
- AUC HT.BocD (HT-1080): −0.1078
- AUC HT.CHX (HT-1080): 0.06685
- AUC HT.Co2+ (HT-1080): 0.4161
- AUC HT.CspA (HT-1080): 0.08661
- AUC HT.DPQ (HT-1080): −0.135
- AUC HT.EGTA (HT-1080): 0.1842
- AUC HT.Gd3+ (HT-1080): −0.0263
- AUC HT.LNAME (HT-1080): <0.2159
- AUC HT.Lmim (HT-1080): −0.2705
- AUC HT.NAD+ (HT-1080): −0.1971
- AUC HT.NMMA (HT-1080): −0.1742
- HT.atoc (AUC) (HT-1080): −0.06249
- HT.bCarotene (AUC) (HT-1080): 0.1654
- HT.deferox (AUC) (HT-1080): 0.127
- HT.digoxin (AUC) (HT-1080): 0.0348
- HT.trolox (AUC) (HT-1080): −0.08079
- HT.zVAD (AUC) (HT-1080): 0.05557
- effect of cobalt (II) on lethality (HT-1080; modulatory profiles, CoCl2 supplementation): inhibited by cobalt (II)
- binding to cobalt (II) in vitro [1]: bound to cobalt (II) in vitro

Compound: N/C(Cc1ccc(Cl)cc1)=N\OC(=O)c1cccc2ccccc12 [CIL70]
- ROS accumulation detected using H2-DCFDA (HT-1080 or BJeLR cells): induced ROS accumulation
- AUC, modulator BJ.3MA (BJeLR): 0.1014
- AUC, modulator BJ.ALLN (BJeLR): −0.07036
- AUC, modulator BJ.Boc D (BJeLR): 0.002412
- AUC, modulator BJ.CHX (BJeLR): 0.1304
- AUC, modulator BJ.Co2+ (BJeLR): −0.0004925
- AUC, modulator BJ.DPQ (BJeLR): 0.02973
- AUC, modulator BJ.Gd3+ (BJeLR): 0.04884
- AUC, modulator BJ.LNAME (BJeLR): −0.006027
- AUC, modulator BJ.Lmin/NAD+ (BJeLR): 0.2633
- AUC, modulator BJ.Lmin (BJeLR): 0.2062
- AUC, modulator BJ.NAD+ (BJeLR): 0.03108
- AUC, modulator BJ.NMMA (BJeLR): −0.008547
- AUC, modulator BJ.Nec-1 (BJeLR): 0.1293
- AUC, modulator BJ.Pepstatin (BJeLR): 0.07715
- AUC, modulator BJ.TLCK (BJeLR): 0.06301
- EC50 (BJeLR; DMSO): 1.76 µM
- EC50 (BJeLR; cotreated with Lmim_NAD): 14.8 µM
- EC50 (BJeLR; [3]): 7.1 µM
- EC50 (BJeLR; cotreated with antioxidant atoc): 18.6 µM
- EC50 (BJeLR; [4]): 13.1 µM
- oncogenic RAS selectivity in the BJ engineered cell line series [2]: did not exhibit oncogenic RAS selectivity
- AUC HT.ATA (HT-1080): −0.004378
- AUC HT.ActD (HT-1080): −0.02914
- AUC HT.BHA (HT-1080): 0.1062
- AUC HT.BHT (HT-1080): −0.03541
- AUC HT.BocD (HT-1080): −0.03004
- AUC HT.CHX (HT-1080): −0.02631
- AUC HT.Co2+ (HT-1080): 0.01978
- AUC HT.CspA (HT-1080): −0.0468
- AUC HT.DPQ (HT-1080): 0.02696
- AUC HT.EGTA (HT-1080): 0.01851
- AUC HT.Gd3+ (HT-1080): −0.01357
- AUC HT.LNAME (HT-1080): 0.005993
- AUC HT.Lmim (HT-1080): 0.2198
- AUC HT.NAD+ (HT-1080): 0.04321
- AUC HT.NMMA (HT-1080): −0.005818
- HT.atoc (AUC) (HT-1080): 0.2733
- HT.bCarotene (AUC) (HT-1080): −0.001707
- HT.deferox (AUC) (HT-1080): 0.2561
- HT.digoxin (AUC) (HT-1080): −0.1366
- HT.trolox (AUC) (HT-1080): 0.1205
- HT.zVAD (AUC) (HT-1080): 0.002272
- effect of ferroptosis inhibitors (iron chelators and lipophilic antioxidants) on lethality in modulatory profiling (HT-1080; HT-1080 and BJeLR): suppression by canonical ferroptosis inhibitors
- EC50 (HT-1080; DMSO): 4.44 µM
- EC50 (HT-1080; cotreated with MEK inh U0126): 10.3 µM
- EC50 (HT-1080; cotreated with antioxidant Atoc): 32.2 µM
- EC50 (HT-1080; cotreated with antioxidant BHA): 13.3 µM
- EC50 (HT-1080; cotreated with antioxidant BHT): 6.5 µM
- EC50 (HT-1080; [3]): 11.1 µM
- EC50 (HT-1080; cotreated with iron-chelator Deferoxamine): 157 µM
- EC50 (HT-1080; [4]): 47.8 µM
- effect of ferroptosis inhibitors (α-tocopherol, deferoxamine) on lethality (HT-1080 cells): strongly suppressed by ferroptosis inhibitors
